Patent publication US20100310535A1, “METHOD FOR EXPANDING HEMATOPOIETIC STEM CELLS USING HETEROCYCLIC COMPOUND” (Nissan Chemical Industries, Ltd., priority 2007, published 2010)

Test system: human cord blood-derived CD34^+ cells
Experiment: Expansion of CD34^+ cells from human cord blood-derived CD34^+ cells (7-day liquid culture with SCF, flow cytometry)
Format: cell-based
Settings: 168 h, 0.3 μg/mL compound, based on the number of CD34^+ cells in the absence of compound, 100 ng/mL SCF, 7 days, read-out: Expansion efficiency
Description: Commercially available human cord blood-derived CD34^+ cells (Cambrex Bio Science Walkersville) were plated on a 12-well plate (Corning) (from 5000 to 10000 cells/1 mL/well). As the culture medium, StemSpan SFEM (Stemcell Technologies) containing 100 ng/mL SCF (R&D Systems) was used, and Compounds Nos. 1 to 16 dissolved in dimethyl sulfoxide were added in an amount of 0.1% (v/v) to a final concentration of 0.3 or 1 μg/mL.
After the cells were incubated in liquid culture at 37° C. for 7 days in a CO2 incubator (in an atmosphere containing 5 vol % CO2), the total number of cells was counted by trypan blue assay (Invitrogen) or Flow-Count™ fluorosphere assay (Beckman Coulter). The number of CD34^+ cells was calculated as follows. After the incubation, the cells in the liquid culture was stained with a CD34 antibody (PE, Becton, Dickinson and Company). The stained cells were analyzed with a flow cytometer (Beckman Coulter) to determined the proportion of CD34^+ cells, which was multiplied by the total number of cells to calculate the number of CD34^+ cells.
The expansion efficiencies in the presence of 0.3 μg/mL or 1 μg/mL of compounds based on the number of CD34^+ cells in the absence of them are shown in Table 3 on a scale of A for expansion efficiencies of 3 or greater, B for expansion efficiencies of at least 2 and less than 3, and C for expansion efficiencies of at least 1.5 and less than 2.

First: C/C(=N\NC(=S)N1CCC(C(=O)NCc2ccncc2)CC1)c1csc(-c2ccc(Br)cc2)c1O [compound 14]
Second: C/C(=N\NC(=S)N1CCC(C(=O)NCC(=O)O)CC1)c1csc(-c2ccc(Br)cc2)c1O [compound 16]
The fold induction at 0.3 µg/mL of the first is lower: 1.5 to 2 for the first, 2 to 3 for the second.

Same assay, conditions: 168 h, 1 μg/mL compound, based on the number of CD34^+ cells in the absence of compound, 100 ng/mL SCF, 7 days, read-out: Expansion efficiency

`C/C(=N\NC(=S)N1CCC(C(=O)O)CC1)c1csc(-c2ccc(Cl)c(Cl)c2)c1O` [compound 1] and `C/C(=N\NC(=S)N1CCC(C(=O)O)CC1)c1csc(-c2cccc(Cl)c2)c1O` [compound 12] fall in the same range of fold induction at 1 µg/mL: 2 to 3 for the first, 2 to 3 for the second.

`C/C(=N\NC(=S)N1CCC(C(=O)O)CC1)c1csc(-c2ccc(C(F)(F)F)cc2)c1O` [compound 2] and `C/C(=N\NC(=S)N1CCC(C(=O)O)CC1)c1csc(-c2ccc(OC(F)(F)F)cc2)c1O` [compound 11] cannot be ordered by fold induction at 1 µg/mL: 2 to 3 for the first, at least 3 for the second.

First: C/C(=N\NC(=S)N1CCC(C(=O)O)CC1)c1nn(C)c(-c2ccc(C(F)(F)F)cc2)c1O [compound 3]
Second: CCCNC(=O)C1CCN(C(=S)N/N=C(\C)c2nn(C)c(-c3ccc(C(F)(F)F)cc3)c2O)CC1 [compound 9]
The fold induction at 1 µg/mL of the first is lower: 1.5 to 2 for the first, 2 to 3 for the second.

`COC(=O)C1CCN(C(=S)N/N=C(\C)c2nn(C)c(-c3ccc(Cl)c(Cl)c3)c2O)CC1` [compound 4] and `COC(=O)C1CCN(C(=S)N/N=C(\C)c2csc(-c3ccc(OC)cc3)c2O)CC1` [compound 5] fall in the same range of fold induction at 1 µg/mL: 1.5 to 2 for the first, 1.5 to 2 for the second.

`COc1ccc(-c2scc(/C(C)=N/NC(=S)N3CCC(C(=O)O)CC3)c2O)cc1` [compound 6] and `C/C(=N\NC(=S)N1CCC(C(=O)O)CC1)c1csc(-c2ccc(Br)cc2)c1O` [compound 8] cannot be ordered by fold induction at 1 µg/mL: at least 3 for the first, at least 3 for the second.

`C/C(=N\NC(=S)N1CCC(C(=O)O)CC1)c1csc(-c2ccc(C(C)(C)C)cc2)c1O` [compound 7] and `C/C(=N\NC(=S)N1CCC(C(=O)O)CC1)c1csc(-c2ccc(Cl)cc2)c1O` [compound 13] cannot be ordered by fold induction at 1 µg/mL: at least 3 for the first, at least 3 for the second.

`C/C(=N\NC(=S)N1CCC(C(=O)O)CC1)c1csc(-c2ccc(C)c(C)c2)c1O` [compound 10] was tested, and the fold induction at 1 µg/mL was at least 3.
